Tested on: COS-7 cells
Assay: Automated lipofection screening: GFP-luciferase reporter gene transfer (luciferase activity per protein content)
Type: cell-based, African green monkey
Conditions: for times higher activity in only one of the helper lipid combinations: best combination against the other combinations; for Maximum transfection efficiency, MW (mean value), Helper lipid: DOPE / Maximum transfection efficiency, MW (mean value), Helper lipid: CHOL / Maximum transfection efficiency, MW (mean value), Helper lipid: without: pEGFPLuc plasmid, point is thousands separator; for Maximum transfection efficiency, MW (mean value), Helper lipid: DOPE: cationic/helper lipid 1:0.5 with DOPE; for Maximum transfection efficiency, MW (mean value), Helper lipid: DOPE / Maximum transfection efficiency, MW (mean value), Helper lipid: CHOL: at the LDR giving the maximum; for Maximum transfection efficiency, MW (mean value), Helper lipid: CHOL: cationic/helper lipid 1:0.5 with cholesterol; for Maximum transfection efficiency, MW (mean value), Helper lipid: without: no helper lipid, at the LDR (1:1-15:1) giving the maximum
Protocol: Screening the combinatorial lipid library for lipofection properties: Goal of this first step was to compare transfection efficiency of these structurally related cationic lipids with systematically modified hydrocarbon chain compositions for the development of suitable lipofection reagents and protocols and to study the relationship between structure and transfection efficiency of this new class of cationic lipids for gene transfer. All lipids (MS-1 to MS-50, table 1) were tested using a standard protocol: From each lipid, twenty four different lipoplexes were formed containing either no helper lipid or the helper lipids DOPE and CHOL at molar amounts (1:0.5), respectively, using eight different lipid:DNA-charge ratios (LDR) from 1:1 - 15:1, resulting in a lipofection profile for each lipid. The COS-7 cell-line was used for this lipofection study since COS-7 is easy to transfect and differences between the lipids are easy to identify.
Cell culture: SV40 transformed African green monkey kidney cell line COS-7 (ATCC CRL-1651) was routinely passaged in DMEM (GIBCO BRL, Karlsruhe, Germany), respectively, supplemented with 1% L-glutamin solution (100x), 1% Penicillin/Streptomycin solution (100x) (GIBCO BRL, Karlsruhe, Germany), and 10% FCS (BioWhittaker, Verviers, Belgium) at 37°C with 5% CO2 in humidified atmosphere. For the screening cells were maintained in 96-well culture plates (Greiner, Frickenhausen, Germany) in 100 µl DMEM, 10 % FCS, 1 % Penicillin-streptomycin in a humidified atmosphere at 37 °C/5 % CO2. 24 h prior to transfection, the cells were seeded into the microtiter plate at 10,000 cells per well to reach a confluency of 50 % at the time of transfection. Dendritic cells: Dendritic cells (DC) were derived from highly purified circulating CD14(+) monocytes: In a first step, peripheral blood mononuclear leukocytes (PBL) from healthy control persons were isolated by Ficoll-Paque (Pharmacia Biotech AB, Uppsala, Sweden) density centrifugation. The following immunomagnetic purification of the monocytes from PBL was performed using CD14 Microbeads and MiniMACS high gradient magnetic separation columns (Miltenyi Biotech, Bergisch Gladbach, Germany) according to manufacturer's instructions. Isolated monocytes (5 x 10^5/well) were cultured in RPMI supplemented with 10 % FCS, or serum-free Macrophage-SFM medium (GIBCO BRL, Karlsruhe, Germany) supplemented with human recombinant GM-CSF (0.05µg/ml) and IL-4 (0.025µg/ml) (PromoCell, Heidelberg, Germany) in 6-well plates. Aliquots of the cells were reanalyzed by FACS with anti-CD14 mAbs (Pharmingen, San Diego, CA). After 5-6 days non-adherent cells were collected and purity of DCs was determined by FACS analysis using a FACSort flow cytometer (Becton Dickinson, Mountain View, CA) and the CellQuest software for data processing as recently described (Jantscheff, P. et al., J. Immunol. Methods 163(1):91-7 (1993)).

Row | SMILES | times higher activity in only one of the helper lipid combinations | Maximum transfection efficiency, MW (mean value), Helper lipid: DOPE [RLU] | Maximum transfection efficiency, MW (mean value), Helper lipid: CHOL [RLU] | Maximum transfection efficiency, MW (mean value), Helper lipid: without [RLU]
1 | CCCCCCCCCCCCCCCCCC[N+](C)(CCCCCCCCCCCCCCCCCC)[C@@H](CO)C(=O)NCCN [MS-29] | 2.5 - 11.5 times |  |  | 
2 | CCCCCCCCCCCCCC[N+](C)(CCCCCCCCCCCCCC)[C@@H](CO)C(=O)NCCCCCN [compound 42] |  | 72.349 | 181.719 | 832
3 | CCCCCCCCCCCCCC[N+](C)(CCCCCCCCCCCCCC)[C@@H](CO)C(=O)NCCN [compound 27] |  | 196.400 | 311.891 | 21.934
4 | CCCCCCCCCCCCCCCCN(CCCCCCCCCCCCCCCC)[C@@H](CO)C(=O)NCCCCCN [compound 18] |  | 26.400 | 42.592 | 22.150
5 | CCCCCCCC/C=C\CCCCCCCCN(CCCCCCCC/C=C\CCCCCCCC)[C@@H](CO)C(=O)NCCN [compound 5] |  | 22.324 | 7.344 | 7.395
6 | CCCCCCCCCCCC[N+](C)(CCCCCCCCCCCC)[C@@H](CO)C(=O)NCCCCCN [compound 41] |  | 1.535 | 923 | 946
7 | CCCCCCCCCCCCCCCCCC[N+](C)(CCCCCCCCCCCCCCCCCC)[C@@H](CO)C(=O)NCCCN [compound 34] |  | 5.085 | 42.068 | 21.056
8 | CCCCCCCC/C=C\CCCCCCCC[N+](C)(CCCCCCCC/C=C\CCCCCCCC)[C@@H](CO)C(=O)NCCCCCN [compound 45] |  | 69.821 | 64.111 | 14.092
9 | CCCCCCCCCCCCN(CCCCCCCCCCCC)[C@@H](CO)C(=O)NCCN [compound 1] |  | 172.116 | 264.581 | 211.937
10 | CCCCCCCCCCCCCCCCN(CCCCCCCCCCCCCCCC)[C@@H](CO)C(=O)NCCCCN [compound 13] |  | 30.635 | 42.604 | 15.287
11 | CCCCCCCCCCCCCCCCN(CCCCCCCCCCCCCCCC)[C@@H](CO)C(=O)NCCCN [compound 8] |  | 38.086 | 22.428 | 6.244
12 | CCCCCCCCCCCCCCCCCCN(CCCCCCCCCCCCCCCCCC)[C@@H](CO)C(=O)NCCCCCCN [compound 24] |  | 21.009 | 20.328 | 920
13 | CCCCCCCC/C=C\CCCCCCCCN(CCCCCCCC/C=C\CCCCCCCC)[C@@H](CO)C(=O)NCCCN [compound 10] |  | 92.769 | 28.835 | 13.461
14 | CCCCCCCCCCCCCCN(CCCCCCCCCCCCCC)[C@@H](CO)C(=O)NCCCCCCN [compound 22] |  | 164.165 | 241.264 | 237.631
15 | CCCCCCCCCCCCCCCCCC[N+](C)(CCCCCCCCCCCCCCCCCC)[C@@H](CO)C(=O)NCCCCCCN [compound 49] |  | 7.563 | 10.245 | 2.177
16 | CCCCCCCCCCCCCCN(CCCCCCCCCCCCCC)[C@@H](CO)C(=O)NCCN [compound 2] |  | 73.117 | 297.074 | 362.300
17 | CCCCCCCCCCCCCCCCCCN(CCCCCCCCCCCCCCCCCC)[C@@H](CO)C(=O)NCCCCN [compound 14] |  | 11.715 | 42.270 | 1.956
18 | CCCCCCCCCCCCCCCC[N+](C)(CCCCCCCCCCCCCCCC)[C@@H](CO)C(=O)NCCCCCCN [compound 48] |  | 73.318 | 96.148 | 62.022
19 | CCCCCCCCCCCCCCCC[N+](C)(CCCCCCCCCCCCCCCC)[C@@H](CO)C(=O)NCCCCN [compound 38] |  | 71.641 | 156.698 | 30.747
20 | CCCCCCCCCCCCN(CCCCCCCCCCCC)[C@@H](CO)C(=O)NCCCN [compound 6] |  | 6.392 | 583 | 944
21 | CCCCCCCC/C=C\CCCCCCCC[N+](C)(CCCCCCCC/C=C\CCCCCCCC)[C@@H](CO)C(=O)NCCCCN [compound 40] |  | 48.692 | 119.285 | 12.263
22 | CCCCCCCC/C=C\CCCCCCCC[N+](C)(CCCCCCCC/C=C\CCCCCCCC)[C@@H](CO)C(=O)NCCN [compound 30] |  | 57.187 | 251.177 | 99.415
23 | CCCCCCCCCCCCCCCC[N+](C)(CCCCCCCCCCCCCCCC)[C@@H](CO)C(=O)NCCN [MS-28] | 2.5 - 11.5 times |  |  | 
24 | CCCCCCCCCCCC[N+](C)(CCCCCCCCCCCC)[C@@H](CO)C(=O)NCCN [compound 26] |  | 846 | 16.919 | 3.196
25 | CCCCCCCCCCCCCCCC[N+](C)(CCCCCCCCCCCCCCCC)[C@@H](CO)C(=O)NCCCN [compound 33] |  | 201.586 | 372.446 | 49.603
26 | CCCCCCCC/C=C\CCCCCCCCN(CCCCCCCC/C=C\CCCCCCCC)[C@@H](CO)C(=O)NCCCCN [compound 15] |  | 340.414 | 243.273 | 232.694
27 | CCCCCCCC/C=C\CCCCCCCCN(CCCCCCCC/C=C\CCCCCCCC)[C@@H](CO)C(=O)NCCCCCCN [compound 25] |  | 44.451 | 12.225 | 23.710
28 | CCCCCCCCCCCCCCCCN(CCCCCCCCCCCCCCCC)[C@@H](CO)C(=O)NCCN [compound 3] |  | 18.255 | 66.096 | 4.049
29 | CCCCCCCCCCCCN(CCCCCCCCCCCC)[C@@H](CO)C(=O)NCCCCCCN [compound 21] |  | 308.849 | 190.171 | 118.131

Source: patent EP1457483A1, “Cationic lipids with serine backbone” (Ruhr-Universität Bochum, priority 2003, dated 2004)
